Test results reported in patent US6627628B1, “Substituted 4-amino-2-aryl-cyclopenta[d]pyrimidines, their production and use and pharmaceutical preparations containing same” (Aventis Pharma Deutschland, GmbH, priority 1998, dated 2003).

| SMILES | melting point [°C] |
| --- | --- |
| Cl.Cl.Clc1ccc(-c2nc3c(c(N(Cc4ccccc4)C4CCNCC4)n2)CCC3)cc1 | 275 |
| COc1cccc(CCNc2nc(-c3cccc(Cl)c3)nc3c2CCC3)c1.Cl | 192 |
| COc1cccc(CCNc2nc(-c3ccc(Cl)cc3)nc3c2CCC3)c1.Cl | 230 |
| COCCNc1nc(-c2ccc(Cl)cc2)nc2c1CCC2.Cl | 208 |
| OCCNc1nc(-c2ccc(Cl)cc2)nc2c1CCC2 [Example 18, 2-(4-Chlorophenyl)-4-(2-hydroxyethylamino)-6,7-dihydro-5H-cyclopenta[d]-pyrimidine] | 160 |
| Clc1ccc(-c2nc3c(c(NCc4cccnc4)n2)CCC3)cc1 [Example 19, 2-(4-Chlorophenyl)-4-((3-pyridylmethyl)amino)-6,7-dihydro-5H-cyclopenta[d]-pyrimidine] | 209 |
| Clc1cccc(-c2nc3c(c(N4CCOCC4)n2)CCC3)c1 [Example 20, 2-(3-Chlorophenyl)-4-morpholino-6,7-dihydro-5H-cyclopenta[d]pyrimidine] | 132 |
| OCCNc1nc(-c2cccc(Cl)c2)nc2c1CCC2 [Example 21, 2-(3-Chlorophenyl)-4-(2-hydroxyethylamino)-6,7-dihydro-5H-cyclopenta[d]-pyrimidine] | 150 |
| Clc1cccc(-c2nc3c(c(NCc4cccnc4)n2)CCC3)c1 [Example 22, 2-(3-Chlorophenyl)-4-((3-pyridylmethyl)amino)-6,7-dihydro-5H-cyclopenta[d]-pyrimidine] | 185 |
| Clc1ccc(-c2nc3c(c(N4CCSCC4)n2)CCC3)cc1 [Example 24, 2-(4-Chlorophenyl)-4-thiomorpholino-6,7-dihydro-5H-cyclopenta[d]pyrimidine] | 159 |
| CC(C)CNc1nc(-c2ccc(Cl)cc2)nc2c1CCC2 [Example 29, 2-(4-Chlorophenyl)-4-isobutylamino-6,7-dihydro-5H-cyclopenta[d]pyrimidine] | 121 |
| CC1(C)CC(Nc2nc(-c3cccc(Cl)c3)nc3c2CCC3)CC(C)(C)N1 [Example 31, 2-(3-Chlorophenyl)-4-(2,2,6,6-tetramethylpiperidin-4-ylamino)-6,7-dihydro-5H-cyclopenta[d]pyrimidine] | 182 |
| Clc1cccc(-c2nc3c(c(N4CCCC4)n2)CCC3)c1 [Example 36, 2-(3-Chlorophenyl)-4-pyrrolidino-6,7-dihydro-5H-cyclopenta[d]pyrimidine] | 150 |
| Clc1cccc(-c2nc3c(c(N4CCSCC4)n2)CCC3)c1 [Example 38, 2-(3-Chlorophenyl)-4-thiomorpholino-6,7-dihydro-5H-cyclopenta[d]pyrimidine] | 134 |
| Cc1ccc(-c2nc3c(c(NCCO)n2)CCC3)cc1 [Example 39, 2-(4-Methylphenyl)-4-(2-hydroxyethylamino)-6,7-dihydro-5H-cyclopenta[d]-pyrimidine] | 191 |
| Cc1ccc(-c2nc3c(c(N4CCCC4)n2)CCC3)cc1 [Example 46, 2-(4-Methylphenyl)-4-pyrrolidino-6,7-dihydro-5H-cyclopenta[d]pyrimidine] | 203 |
| Cc1ccc(-c2nc3c(c(N4CCSCC4)n2)CCC3)cc1 [Example 47, 2-(4-Methylphenyl)-4-thiomorpholino-6,7-dihydro-5H-cyclopenta[d]pyrimidine] | 160 |
| CCCN(CCC)c1nc(-c2cc(Cl)cc(Cl)c2)nc2c1CCC2 [Example 52, 2-(3,5-Dichlorophenyl)-4-dipropylamino-6,7-dihydro-5H-cyclopenta[d]pyrimidine] | 120 |
| Clc1cc(Cl)cc(-c2nc3c(c(N4CCCCC4)n2)CCC3)c1 [Example 53, 2-(3,5-Dichlorophenyl)-4-piperidino-6,7-dihydro-5H-cyclopenta[d]pyrimidine] | 147 |
| COc1ccc(-c2nc3c(c(NCCCO)n2)CCC3)cc1 [Example 54, 2-(4-Methoxyphenyl)-4-(3-hydroxypropylamino)-6,7-dihydro-5H-cyclopenta[d]-pyrimidine] | 165 |

| SMILES | melting point [°C] |
| --- | --- |
| CCCCNc1nc(-c2ccc(OC)cc2)nc2c1CCC2 [Example 55, 2-(4-Methoxyphenyl)-4-butylamino-6,7-dihydro-5H-cyclopenta[d]pyrimidine] | 119 |
| COc1ccc(-c2nc3c(c(NC4CCCC4)n2)CCC3)cc1 [Example 56, 2-(4-Methoxyphenyl)-4-cyclopentylamino-6,7-dihydro-5H-cyclopenta[d]-pyrimidine] | 154 |
| COc1ccc(-c2nc3c(c(NC4CCCCC4)n2)CCC3)cc1 [Example 57, 2-(4-Methoxyphenyl)-4-cyclohexylamino-6,7-dihydro-5H-cyclopenta[d]-pyrimidine] | 138 |
| COc1ccc(-c2nc3c(c(NCCc4ccccc4Cl)n2)CCC3)cc1 [Example 58, 2-(4-Methoxyphenyl)-4-(2-(2-chlorophenyl)ethylamino)-6,7-dihydro-5H-cyclopenta[d]pyrimidine] | 145 |
| CCCN(CCC)c1nc(-c2ccc(OC)cc2)nc2c1CCC2 [Example 59, 2-(4-Methoxyphenyl)-4-dipropylamino-6,7-dihydro-5H-cyclopenta[d]pyrimidine] | 74 |
| COc1ccc(-c2nc3c(c(N4CCCCCC4)n2)CCC3)cc1 [Example 60, 2-(4-Methoxyphenyl)-4-hexamethyleneimino-6,7-dihydro-5H-cyclopenta[d]-pyrimidine] | 99 |
| COc1ccc(-c2nc3c(c(N4CCOCC4)n2)CCC3)cc1 [Example 61, 2-(4-Methoxyphenyl)-4-morpholino-6,7-dihydro-5H-cyclopenta[d]pyrimidine] | 192 |
| COCCCNc1nc(-c2ccc(OC)c(OC)c2)nc2c1CCC2 [Example 62, 2-(3,4-Dimethoxyphenyl)-4-(3-methoxypropylamino)-6,7-dihydro-5H-cyclopenta-[d]pyrimidine] | 107 |
| COc1ccc(-c2nc3c(c(NC4CCCC4)n2)CCC3)cc1OC [Example 63, 2-(3,4-Dimethoxyphenyl)-4-cyclopentylamino-6,7-dihydro-5H-cyclopenta[d]-pyrimidine] | 138 |
| COc1ccc(-c2nc3c(c(NC4CCCCC4)n2)CCC3)cc1OC [Example 64, 2-(3,4-Dimethoxyphenyl)-4-cyclohexylamino-6,7-dihydro-5H-cyclopenta[d]-pyrimidine] | 70 |
| CCCCNc1nc(-c2ccc(OC)c(OC)c2)nc2c1CCC2 [Example 65, 2-(3,4-Dimethoxyphenyl)-4-butylamino-6,7-dihydro-5H-cyclopenta[d]pyrimidine] | 115 |
| CCCN(CCC)c1nc(-c2ccc(OC)c(OC)c2)nc2c1CCC2 [Example 66, 2-(3,4-Dimethoxyphenyl)-4-dipropylamino-6,7-dihydro-5H-cyclopenta[d]-pyrimidine] | 107 |
| COc1ccc(-c2nc3c(c(N4CC(C)OC(C)C4)n2)CCC3)cc1OC (stereo not shown) [Example 67, 2-(3,4-Dimethoxyphenyl)-4-(2,6-dimethylmorpholino)-6,7-dihydro-5H-cyclopenta[d]pyrimidine] | 142 |
| COc1ccc(-c2nc3c(c(N(CCO)CCO)n2)CCC3)cc1OC [Example 68, 2-(3,4-Dimethoxyphenyl)-4-(di-(2-hydroxyethyl)amino)-6,7-dihydro-5H-cyclopenta[d]pyrimidine] | 115 |
| COCCCNc1nc(-c2ccc(C#N)cc2)nc2c1CCC2 [Example 69, 2-(4-Cyanophenyl)-4-(3-methoxypropylamino)-6,7-dihydro-5H-cyclopenta[d]-pyrimidine] | 130 |
| N#Cc1ccc(-c2nc3c(c(NCc4ccccc4)n2)CCC3)cc1 [Example 70, 2-(4-Cyanophenyl)-4-benzylamino-6,7-dihydro-5H-cyclopenta[d]pyrimidine] | 168 |
| CCN(CC)c1nc(-c2ccc(C#N)cc2)nc2c1CCC2 [Example 71, 2-(4-Cyanophenyl)-4-diethylamino-6,7-dihydro-5H-cyclopenta[d]pyrimidine] | 130 |
| N#Cc1ccc(-c2nc3c(c(N4CCCCC4)n2)CCC3)cc1 [Example 72, 2-(4-Cyanophenyl)-4-piperidino-6,7-dihydro-5H-cyclopenta[d]pyrimidine] | 152 |
| N#Cc1ccc(-c2nc3c(c(N4CCOCC4)n2)CCC3)cc1 [Example 73, 2-(4-Cyanophenyl)-4-morpholino-6,7-dihydro-5H-cyclopenta[d]pyrimidine] | 247 |
| N#Cc1ccc(-c2nc3c(c(NCc4cccnc4)n2)CCC3)cc1 [Example 74, 2-(4-Cyanophenyl)-4-((3-pyridylmethyl)amino)-6,7-dihydro-5H-cyclopenta[d]-pyrimidine] | 219 |
